Results: a compilation of properties of binary mixtures (doi:10.1016/j.molliq.2022.120410)

Assay: xn = mol fraction of the nth substance listed
Conditions: 101.3 kPa

OCCOCCO + CC[NH3+].O=[N+]([O-])[O-]
x2 = 0
Conditions | speed of sound [m/s]
298.1 K | 1580.6
308.1 K | 1556.6

CC[NH3+].O=[N+]([O-])[O-] + OCCOCCO
speed of sound [m/s]
Conditions | 298.1 K | 308.1 K | 318.1 K
x1 = 0.0488 | 1599.6 | 1576.8 | 1553.8
x1 = 0.0983 | 1614.6 | 1592 | 1569.5
x1 = 0.197 | 1632 | 1609.6 | 1587.5
x1 = 0.2961 | 1639.9 | 1619.1 | 1598.3
x1 = 0.3955 | 1644.5 | 1625.4 | 1605.9
x1 = 0.4954 | 1643.9 | 1625.6 | 1607.3
x1 = 0.5955 | 1643.2 | 1626.3 | 1609.1
x1 = 0.6961 | 1641.7 | 1625.6 | 1609.1
x1 = 0.797 | 1640 | – | 1607.8
x1 = 0.8983 | 1638.6 | 1622.8 | 1607.3
x1 = 1 | – | 1624.7 | 1609.3
